One compound from publication PMC8396041, “A Michael Acceptor Analogue, SKSI-0412, Down-Regulates Inflammation and Proliferation Factors through Suppressing Signal Transducer and Activator of Transcription 3 Signaling in IL-17A-Induced Human Keratinocyte” (International Journal of Molecular Sciences, 2021) can be followed below.

The target in the assay is T1, STAT3 (Homo sapiens, UniProt P40763).
T1 construct: Recombinant human STAT3 protein (Abnova, cat no. H00006774-P01)
Nature of the assay: intrinsic fluorescence quenching titration (ex […] nm, em […] nm). It counts as binding.

SMILES strings stand for the structures.

T1 sequence (P40763 2-770): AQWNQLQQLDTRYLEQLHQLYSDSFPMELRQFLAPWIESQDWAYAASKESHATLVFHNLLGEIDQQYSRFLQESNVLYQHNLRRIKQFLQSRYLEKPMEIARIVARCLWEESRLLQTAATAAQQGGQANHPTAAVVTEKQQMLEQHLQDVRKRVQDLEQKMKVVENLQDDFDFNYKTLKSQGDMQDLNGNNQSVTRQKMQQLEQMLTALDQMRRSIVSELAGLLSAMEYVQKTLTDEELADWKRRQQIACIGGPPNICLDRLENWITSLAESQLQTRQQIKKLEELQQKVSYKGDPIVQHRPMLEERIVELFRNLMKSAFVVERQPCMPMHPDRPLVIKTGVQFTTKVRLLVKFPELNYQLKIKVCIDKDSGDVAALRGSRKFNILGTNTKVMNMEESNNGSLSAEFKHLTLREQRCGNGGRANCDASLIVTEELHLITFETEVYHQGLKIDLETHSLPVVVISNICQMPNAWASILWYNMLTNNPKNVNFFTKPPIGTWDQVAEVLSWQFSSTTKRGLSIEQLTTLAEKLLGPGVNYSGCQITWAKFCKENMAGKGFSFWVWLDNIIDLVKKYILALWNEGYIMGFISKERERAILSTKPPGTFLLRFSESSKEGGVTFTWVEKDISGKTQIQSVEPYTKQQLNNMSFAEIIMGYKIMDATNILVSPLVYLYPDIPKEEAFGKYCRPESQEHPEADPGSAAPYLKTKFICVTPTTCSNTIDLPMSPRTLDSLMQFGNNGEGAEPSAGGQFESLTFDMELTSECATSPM

As usually defined, the Kd is the concentration at which binding is half-saturated. Read a high Kd as lower affinity. For `C=C(C(=O)c1ccc2c(c1)C=CC(C)(C)O2)c1ccc(OC)c(OC)c1` [compound 4, 2-(3,4-Dimethoxyphenyl)-1-(2,2-Dimethyl-2H-Chromen-6-yl)Prop-2-en-1-One], the affinity, expressed as Kd, was 26.8 µM.
